# Results reported in PubChem BioAssay AID256 (DTP/NCI, 2004).
# Inconclusive results and toxic doses are left out.
# System: CD2F1 mice, L1210 leukemia ip, survival T/C
# Test: NCI In Vivo Anticancer Drug Screen. Data for tumor model L1210 Leukemia (intraperitoneal) in CD2F1 (CDF1) mice
# Details: endpoint: mean survival time, higher = longer survival
# Procedure, shortened: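 Mice carrying a transplanted tumor received test compound or vehicle alone. The value is the measurement in the treated group divided by that in the vehicle-treated control group.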
# [1] = dose: 12.5 mg/kg/injection, schedule: Q01DX009 (ip), vehicle: saline
# [2] = dose: 50.0 mg/kg/injection, schedule: Q01DX009 (ip), vehicle: saline
# [3] = dose: 100.0 mg/kg/injection, schedule: Q01DX009 (ip), vehicle: Klucel (hydroxypropylcellulose) (HPC)
# [4] = dose: 100.0 mg/kg/injection, schedule: Q04DX003 (ip), vehicle: saline with Tween-80
# [5] = dose: 200.0 mg/kg/injection, schedule: Q04DX003 (ip), vehicle: saline with Tween-80
# [6] = dose: 400.0 mg/kg/injection, schedule: Q04DX003 (ip), vehicle: saline with Tween-80
smiles,measurement,setting,value
CC1(C)N=C(N)N=C(N)N1c1ccc(CCC(=O)Nc2ccc(S(=O)(=O)F)cc2)c(Cl)c1,T/C,"dose: 6.25 mg/kg/injection, schedule: Q01DX009 (ip), vehicle: saline",104 % of control
same,T/C,"dose: 6.25 mg/kg/injection, schedule: Q01DX009 (ip), vehicle: water",112 % of control
same,T/C,[1],120 % of control
same,T/C,"dose: 12.5 mg/kg/injection, schedule: Q01DX009 (ip), vehicle: water",112 % of control
same,T/C,"dose: 25.0 mg/kg/injection, schedule: Q01DX009 (ip), vehicle: water",119 % of control
same,T/C,[2],120 % of control
FC(F)(F)c1ccc2ccc3ccc(Cl)cc3c2c1,T/C,"dose: 37.5 mg/kg/injection, schedule: Q01DX009 (ip), vehicle: saline",97 % of control
same,T/C,"dose: 75.0 mg/kg/injection, schedule: Q01DX009 (ip), vehicle: saline",94 % of control
same,T/C,"dose: 75.0 mg/kg/injection, schedule: Q04DX003 (ip), vehicle: saline",91 % of control
same,T/C,"dose: 150.0 mg/kg/injection, schedule: Q01DX009 (ip), vehicle: saline",91 % of control
same,T/C,"dose: 150.0 mg/kg/injection, schedule: Q04DX003 (ip), vehicle: saline",95 % of control
same,T/C,"dose: 300.0 mg/kg/injection, schedule: Q04DX003 (ip), vehicle: saline",97 % of control
CCN1CC2c3cc(OC)c(OC)cc3CC(c3ccccc3)C2C1 (stereo unspecified),T/C,"dose: 12.5 mg/kg/injection, schedule: Q04DX003 (ip), vehicle: saline with Tween-80",108 % of control
same,T/C,"dose: 25.0 mg/kg/injection, schedule: Q04DX003 (ip), vehicle: saline with Tween-80",104 % of control
same,T/C,"dose: 50.0 mg/kg/injection, schedule: Q04DX003 (ip), vehicle: saline with Tween-80",92 % of control
COc1ccc(NC(=O)Oc2cccnc2)c(Cl)c1,T/C,"dose: 50.0 mg/kg/injection, schedule: Q01DX009 (ip), vehicle: Klucel (hydroxypropylcellulose) (HPC)",100 % of control
same,T/C,[3],104 % of control
CN(C)C1=NC1(C)C.CN(C)C1=NC1(C)C.[Cl][Pd][Cl],T/C,"dose: 3.13 mg/kg/injection, schedule: Q04DX003 (ip), vehicle: distilled water + Tween-80",96 % of control
same,T/C,"dose: 6.25 mg/kg/injection, schedule: Q04DX003 (ip), vehicle: distilled water + Tween-80",101 % of control
same,T/C,"dose: 12.5 mg/kg/injection, schedule: Q04DX003 (ip), vehicle: distilled water + Tween-80",96 % of control
same,T/C,"dose: 25.0 mg/kg/injection, schedule: Q04DX003 (ip), vehicle: distilled water + Tween-80",105 % of control
same,T/C,"dose: 50.0 mg/kg/injection, schedule: Q04DX003 (ip), vehicle: distilled water + Tween-80",101 % of control
same,T/C,"dose: 100.0 mg/kg/injection, schedule: Q04DX003 (ip), vehicle: distilled water + Tween-80",114 % of control
O=C(Nc1nc2ccccc2s1)c1cc2ccccc2cc1O,T/C,[4],87 % of control
same,T/C,[5],98 % of control
same,T/C,[6],91 % of control
Cc1cn(C2CC(O)C(Cn3ccc4ccccc43)O2)c(=O)[nH]c1=O (stereo unspecified),T/C,"dose: 12.5 mg/kg/injection, schedule: Q01DX005 (ip), vehicle: Klucel (hydroxypropylcellulose) (HPC)",94 % of control
same,T/C,"dose: 25.0 mg/kg/injection, schedule: Q01DX005 (ip), vehicle: Klucel (hydroxypropylcellulose) (HPC)",90 % of control
O=C1NN=C2CCCCC12 (stereo unspecified),T/C,[3],97 % of control
same,T/C,"dose: 200.0 mg/kg/injection, schedule: Q01DX009 (ip), vehicle: Klucel (hydroxypropylcellulose) (HPC)",96 % of control
same,T/C,"dose: 400.0 mg/kg/injection, schedule: Q01DX009 (ip), vehicle: Klucel (hydroxypropylcellulose) (HPC)",102 % of control
O=C(CN1CCCCC1)NC(=O)NC1=C(N2CCCCC2)C(=O)c2ccccc2C1=O,T/C,"dose: 100.0 mg/kg/injection, schedule: Q01DX001 (ip), vehicle: other",97 % of control
same,T/C,"dose: 200.0 mg/kg/injection, schedule: Q01DX001 (ip), vehicle: other",101 % of control
same,T/C,"dose: 400.0 mg/kg/injection, schedule: Q01DX001 (ip), vehicle: other",95 % of control
N#CC(C#N)=Cc1cc2ccccc2c2ccccc12,T/C,[4],109 % of control
same,T/C,[5],97 % of control
same,T/C,[6],101 % of control
CC(=O)Nc1cccc(N=Cc2ccc(N(CCOS(C)(=O)=O)CCOS(C)(=O)=O)cc2C)c1,T/C,"dose: 6.25 mg/kg/injection, schedule: Q01DX009 (ip), vehicle: saline with Tween-80",123 % of control
same,T/C,"dose: 8.0 mg/kg/injection, schedule: Q01DX009 (ip), vehicle: saline with Tween-80",118 % of control
same,T/C,"dose: 25.0 mg/kg/injection, schedule: Q01DX009 (ip), vehicle: saline with Tween-80",124 % of control
COc1cc(OC)c2c(c1Cl)OC(C(C)=O)C2=O (stereo unspecified),T/C,"dose: 50.0 mg/kg/injection, schedule: Q01DX009 (ip), vehicle: saline with Tween-80",97 % of control
same,T/C,"dose: 100.0 mg/kg/injection, schedule: Q01DX009 (ip), vehicle: saline with Tween-80",102 % of control
same,T/C,[4],93 % of control
same,T/C,"dose: 200.0 mg/kg/injection, schedule: Q01DX009 (ip), vehicle: saline with Tween-80",96 % of control
same,T/C,[5],102 % of control
Cc1ccc(/C(C#N)=C2C=C(Br)/C(=N\O)C=C/2Cl)cc1,T/C,"dose: 25.0 mg/kg/injection, schedule: Q01DX009 (ip), vehicle: acetone",96 % of control
same,T/C,"dose: 50.0 mg/kg/injection, schedule: Q01DX009 (ip), vehicle: acetone",98 % of control
same,T/C,"dose: 100.0 mg/kg/injection, schedule: Q01DX009 (ip), vehicle: acetone",98 % of control
O=C([O][Sb]([O]C(=O)C(Cl)Cl)([c]1ccccc1)([c]1ccccc1)[c]1ccccc1)C(Cl)Cl,T/C,[4],92 % of control
same,T/C,[5],88 % of control
CCCC(C#CCN(C)C)N(C)C (stereo unspecified),T/C,[1],97 % of control
same,T/C,"dose: 25.0 mg/kg/injection, schedule: Q01DX009 (ip), vehicle: saline",97 % of control
same,T/C,[2],98 % of control
CS(=O)(=O)Nc1ccc(Nc2c3ccccc3nc3cc(N)ccc23)cc1,T/C,"dose: 1.5 mg/kg/injection, schedule: Q01DX001 (ip), vehicle: saline",160 % of control
same,T/C,"dose: 3.0 mg/kg/injection, schedule: Q01DX001 (ip), vehicle: saline",162 % of control
same,T/C,"dose: 3.0 mg/kg/injection, schedule: Q01DX009 (ip), vehicle: saline",152 % of control
same,T/C,"dose: 5.0 mg/kg/injection, schedule: Q01DX009 (ip), vehicle: saline",114 % of control
same,T/C,"dose: 12.0 mg/kg/injection, schedule: Q01DX001 (ip), vehicle: saline",175 % of control
CN(C)/C=N/NC(=O)c1ccccc1O,T/C,[4],98 % of control
same,T/C,[5],100 % of control
same,T/C,[6],100 % of control
CC(O)C1NC(=S)N(c2ccccc2)C1=O (stereo unspecified),T/C,"dose: 75.0 mg/kg/injection, schedule: Q01DX001 (ip), vehicle: saline",100 % of control
same,T/C,"dose: 150.0 mg/kg/injection, schedule: Q01DX001 (ip), vehicle: saline",103 % of control
same,T/C,"dose: 300.0 mg/kg/injection, schedule: Q01DX001 (ip), vehicle: saline",103 % of control
CC(CN=Cc1ccccc1O)N=Cc1ccccc1O.[Cu] (stereo unspecified),T/C,"dose: 25.0 mg/kg/injection, schedule: Q04DX002 (ip), vehicle: saline with Tween-80",96 % of control
same,T/C,"dose: 50.0 mg/kg/injection, schedule: Q04DX002 (ip), vehicle: saline with Tween-80",103 % of control
same,T/C,"dose: 100.0 mg/kg/injection, schedule: Q04DX002 (ip), vehicle: saline with Tween-80",100 % of control
same,T/C,"dose: 200.0 mg/kg/injection, schedule: Q04DX002 (ip), vehicle: saline with Tween-80",103 % of control
O=C(O)c1ccccc1C(Br)C(Br)c1ccccc1 (stereo unspecified),T/C,[4],101 % of control
same,T/C,[5],98 % of control
same,T/C,[6],106 % of control
CC12COC(=O)C1(C)C1CCC2O1 (stereo unspecified),T/C,"dose: 1.0 mg/kg/injection, schedule: Q04DX002 (ip), vehicle: saline",92 % of control
same,T/C,"dose: 2.0 mg/kg/injection, schedule: Q04DX002 (ip), vehicle: saline",88 % of control
same,T/C,"dose: 4.0 mg/kg/injection, schedule: Q04DX002 (ip), vehicle: saline",92 % of control
same,T/C,"dose: 5.0 mg/kg/injection, schedule: Q01DX002 (ip), vehicle: saline with Tween-80",100 % of control
same,T/C,"dose: 10.0 mg/kg/injection, schedule: Q01DX002 (ip), vehicle: saline with Tween-80",108 % of control
O=S(=O)(O)CCCBr,T/C,"dose: 100.0 mg/kg/injection, schedule: Q01DX009 (ip), vehicle: saline",93 % of control
same,T/C,"dose: 200.0 mg/kg/injection, schedule: Q01DX009 (ip), vehicle: saline",105 % of control
same,T/C,"dose: 400.0 mg/kg/injection, schedule: Q01DX009 (ip), vehicle: saline",100 % of control
ON=C1c2cc(Br)ccc2-c2ccc(Br)cc21,T/C,"dose: 50.0 mg/kg/injection, schedule: Q01DX001 (ip), vehicle: carboxymethylcellulose (CMC)",104 % of control
same,T/C,"dose: 100.0 mg/kg/injection, schedule: Q01DX001 (ip), vehicle: carboxymethylcellulose (CMC)",102 % of control
same,T/C,"dose: 200.0 mg/kg/injection, schedule: Q01DX001 (ip), vehicle: carboxymethylcellulose (CMC)",98 % of control
same,T/C,"dose: 400.0 mg/kg/injection, schedule: Q01DX001 (ip), vehicle: carboxymethylcellulose (CMC)",102 % of control
[Co+2].[NH-]c1ccccc1C(=O)O.[NH-]c1ccccc1C(=O)O,T/C,[4],89 % of control
same,T/C,[5],91 % of control
same,T/C,[6],91 % of control
